Read-outs that look alike come from different tables or passages of the source.

Experiment [1] relates to KYSE450 cell-derived xenograft. Put plainly: In vivo cell-derived xenograft (CDX) mouse model. Also noted: species or system nu/nu nude mice. As to the method: Mice were housed under specific pathogen-free conditions. All animal experiments were approved by the Bioethics Committee of Zhengzhou University and followed the guidelines set by the Institutional Animal Care and Use Committee (CUHCI2019002, CUHCI2021001, and CUHCI2021005). To generate the cell-derived xenograft (CDX) mouse model, nu/nu nude mice (Vital River Labs., Beijing, China) were subcutaneously injected with 5 × 10^6 cells (KYSE450). […] Tumor volume was calculated as follows: length × width × height × 0.5. Tumor size and mice weight were measured every 2–3 days. Compounds were administered for 15 days. The tumors were extracted for weighting, immunohistochemistry and immunofluorescence studies.
Frozen sections were washed three times with PBS and incubated overnight at 4°C with Ki-67 antibody. The next day, sections were washed three times and incubated with secondary antibody in PBS. After several washes, slides were counterstained with DAPI (Solarbio). The sections were mounted on microscope and imaged using fluorescent microscopy (Nikon, Tokyo, Japan). Image-Pro Plus 6.0 was used to analyze the fluorescence intensity.
Histological sections were dewaxed, antigens were repaired and sealed with serum in sequence. Next, histological sections were incubated overnight with diluted primary antibodies (1 : 500 dilution), and the control specimens were treated with PBS. The sections were washed 3 times with PBS. Secondary antibody was added and the system was then placed at 37 °C for half an hour. The systems were washed 3 times with PBS. Color developing agent was added. After washing with water, the system was soaked in hematoxylin for 0.5 min for dyeing. The re-dyed slides were washed with water, and then dehydrated. Neutral gums were dropped on the side of the tissue. The slices were then covered with cover glass, sealed and placed in a ventilator for drying. Immunohistochemical staining analysis was then carried out with Image-Pro Plus 6.0.

A further experiment deals with H1975 cells. Put plainly: MTT assay for cell proliferation and cytotoxicity, H1975. The class given is cell-based, human. The conditions noted are these: Homo sapiens, H1975, MTT, resistance-inducing drug (osimertinib). Put shortly:
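Cells in RPMI-1640 with 10% FBS (taxol-resistant lines kept in 100 nm/L paclitaxel) were seeded at 2,200–2,500 cells/well and dosed next day with compound at 0–50 μM, 0.1% DMSO as control. After 48 h, MTT was added for 1–4 h and absorbance read at 490 nm.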
In general terms: Formazan colour is commonly taken as a measure of viable cells.

The next experiment deals with H1975OR cells. Put plainly: MTT assay, osimertinib-resistant H1975OR. The note with it: Homo sapiens, H1975OR, resistance-inducing drug (osimertinib). The format is cell-based. The source says:
The human cancer cells (H1650, H1975, KYSE70, KYSE410 and KYSE450) were purchased from the Type Culture Collection of the Chinese Academy of Sciences (Shanghai, China). The human immortalized normal esophageal epithelial cell line SHEE was donated by Dr. Enmin Li from the Laboratory of Tumor Pathology (Shantou University Medical College, Shantou, Guangdong, China). Drug-resistant cells (H1650TR, H1975OR, KYSE70TR, KYSE410TR and KYSE450TR) were induced by China-US (Henan) Hormel Cancer Institute. The cellswere cultured in RPMI-1640 complete growth medium containing 100 U/mL penicillin-streptomycin and 10% FBS. Based on the above medium formula, 100 nm/L paclitaxel was added in taxol-resistant cells, 100 nm/L gefitinib was added in gefitinib-resistant cells. The cells were incubated at 37 °C in an atmosphere containing 5% of CO2. The compounds were dissolved in DMSO to make a 50 mM stock solution and were diluted to the concentration of working solutions with complete growth medium before administration.
Cells were seeded in 96-well plates with 2,200–2,500 cells/well in100 μL. One day after seeding, test compounds with the concentration between 0 and 50 μM were added with 0.1% DMSO as control. Five multiple wells for each concentration. […] The absorbance at 490 nm was measured using a microplate reader (Thermo).

[2] abbreviates: nude mice, 50 mg/kg i.p. every day, 15 days, vs control group and icotinib group.

For `C#Cc1cccc(Nc2ncnc3cc(OCCOC)c(OCCOC)cc23)c1` [erlotinib, reference compound], the “expression of proliferation marker Ki-67 in tumor” value in experiment [1] (50 mg/kg i.p., immunofluorescence) is recorded as “decreased significantly”. Besides, the “expression of P-ERK (Tyr202/204) in tumor” value in experiment [1] (50 mg/kg i.p., immunohistochemistry) is “decreased significantly”. In addition, in experiment [1] (setting [2]), the ESCC tumor volume result is recorded as “markedly reduced” and the average tumor weight result was “markedly reduced”.

As usually defined, the IC50 is the midpoint of a concentration-inhibition curve. Turning to `C=CC(=O)Nc1cc(Nc2nccc(-c3cn(C)c4ccccc34)n2)c(OC)cc1N(C)CCN(C)C` [osimertinib, reference compound], the IC50 in the experiment on H1975 cells (NCI-H1975, 24 h, 24 h, read-out: 24 h IC50) is 0.585 ± 0.0261 µM; in the experiment with H1975 cells (NCI-H1975, 48 h, 48 h, read-out: 48 h IC50) it was 0.102 ± 0.0121 µM; in the experiment on H1975OR cells (24 h, read-out: 24 h IC50) it was 13.8 ± 2.98 µM; in the experiment on H1975OR cells (48 h, read-out: 48 h IC50), 5.97 ± 0.289 µM.
